According to paper PMC6836573, “Mitochondria-targeting fluorescent molecules for high efficiency cancer growth inhibition and imaging” (Chemical Science, 2019):
Entries after “also recorded” stand apart in the source; their conditions may differ.

Experiments:
H838 cells' mitochondria = assay: Effect of membrane potential (high K+ medium, FCCP) on 5BMF accumulation; assay type: cell-based
Protocol: To verify that F16 derivatives preserve the same property, H838 cells were preincubated in high K^+ medium (137 mM) to depolarize the plasma membrane, then 5BMF (3 μM) was added and incubated for 30 min. […] As with other DLCs, the selectivity of F16s for mitochondria is driven by the negative transmembrane potential.[18]
Mitotracker® Red (Molecular Probes) and Hoechst (Thermo Scientific) were added to the medium to stain the mitochondria and nuclei, following the manufacturer’s procedures. Cells were photographed as previously described using a 63× oil or 20× objective lens.
The effect of membrane potential on 5BMF accumulation was performed through staining HCC827 cells in low K+ and high K+ buffer, instead of RPMI-1640 culture medium. Low K+ buffer contains 137 mM NaCl, 3.6 mM KCI, 0.5 mM MgCl2, 1.8 mM CaCl2 of RPMI-1640 medium (GIBCO). […]
Cytotoxicity assay. […] After incubating for 3 days, the viable cell numbers were checked and directly counted under microscopy (10X). A minimum of 1mm×1mm area was counted from each of at least three widely separated regions of cell culture. The cell proliferation rate was calculated by the following formula: cell proliferation rate (%) = (average cell number of sample wells / average cell number of control wells) ×100%.
The intact culture medium was evaluated as a control. […]

[1] = tested on: human lung cancer HCC827 xenograft; assay: HCC827 s.c. tumor model treatment; assay type: in vivo, nude mice
Protocol: HCC827 s.c. tumor model treatment and imaging
All animal experiments were performed in compliance with the Guidelines for the Care and Use of Research Animals as established by the Stanford University Animal Studies Committee. Female athymic nude mice (nu/nu) from 4−6 weeks old were obtained from Charles River Laboratories (Boston, MA, USA) and kept under sterile conditions. 5 × 106 human lung adenocarcinoma […]
HCC827 cells suspended in 150 µL of PBS were inoculated subcutaneously in the right shoulder […]
When the tumors reached ~3 mm in diameter, the tumor-bearing mice were administered i.v. with 5BMF (dissolved in 150 µL PBS, with 2 µL DMSO) at 15 mg/Kg on days 1, 3, 5, 7, 9, 11, 13, 15, 17, 19, 21. Correspondingly, untreated tumor-bearing mice serving as controls were administered i.v. with 150 µL 1× PBS pH 7.4 (with 2 µL DMSO) on the same days as the treated mice. Ten mice were used for each group. Length and width of the elliptical tumors were measured by Vernier caliper after every intravenous injection. Modified ellipsoid formula ½ (Length × Width2) was used to calculate the tumor size. The tumor growth was calculated with the ratio of final volume (FV) minus initial volume (IV) to initial volume (IV). […]
The tumor tissues and some important organs such as liver, kidney, lung, heart were isolated. After frozen, the specimens sectioned at 5-8 µm and processed for a standard hematoxylin-eosin (H&E) staining. Slides were viewed and photographed with the Nanozoomer Digital Pathology Image […]
The body weights of mice are presented as means ± standard deviation (SD) of n independent measurements. The tumor volumes are presented as means ± standard error of mean (SEM) of n independent measurements. Statistical analysis was performed using a Student’s t-test or Mann-Whitney U test. Statistical significance was assigned for P values <0.05. […]

SMILES: Cc1cc(Br)cc2c(/C=C/c3cc[n+](C)cc3)c[nH]c12 [5BMF]
- accumulation in mitochondria in high K+ medium versus low K+ medium (H838 cells' mitochondria; H838 cells, 3 μM, 30 min, high K+ 137 mM, low K+ 3.6 mM): much less 5BMF accumulation in mitochondria
- mitochondrial staining after addition of FCCP (H838 cells' mitochondria; cells preloaded with 5BMF, FCCP 5 µM, 1 and 3 min): immediately decayed and diffused into the cytoplasm
- day from which inhibitory tumor growth effects appeared ([1]; 15 mg/kg IV every other day): 9 days
- increase of mean tumor volume after the 21 day-treatment period ([1]; 15 mg/kg IV every other day, day 1-21, n = 10, PBS control ∼16 times): ~2 times
- toxicity to mice ([1]; 15 mg/kg IV, 21 days of treatment): no obvious toxicity
- tumor growth compared to the PBS treated control group ([1]; 15 mg/kg IV, 21 days, p = 0.0426 at day 21): significantly suppressed; also recorded: suppressed dramatically; also recorded: decreased dramatically
- body weight between control and treated groups ([1]; 15 mg/kg IV, 21 days, p = 0.477): no significant difference
- major organs' histologic examination (H&E) ([1]; 15 mg/kg IV, over four weeks, compared to control): did not reveal any significant microscopic lesions
- tumor pathologic section H&E staining ([1]; HCC827 tumor, 5BMF-treated): caused tumor inflammatory cell infiltration, fibrous tissue proliferation, and cell apoptosis
